Experimental findings from patent US20250066347A1, “SUBSTITUTED THIAZOLIDINEDIONE DERIVATIVE COMPOUND, AND PHARMACEUTICAL COMPOSITION FOR PREVENTING OR TREATING CANCER, COMPRISING SAME” (MEDIFIC, INC., priority 2021, published 2025) are described below.

In one assay the test system is HOG-GSC cells. In words: Comparison of cell viability in brain tumor stem cell (MTS assay). As to conditions: 72 hours, DMSO control = 1, value below 0.5 = viability decreased by 50% or more. Type of assay: cell-based. How it is done:
HOG-GSC cells which are brain tumor stem cells were treated with 11 compounds at 10 μM and DMSO as a control group, and the number of surviving cells after 72 hours was evaluated by MTS assay.
HOG-GSC which is a brain tumor stem cell was seeded on a 96-well plate at 5000 cells per well, and was cultured in an incubator (ThermoFisher) at 37° C. and 5% CO2 for 24 hours for stabilization of cells. Thereafter, it was treated with 11 compounds of the present invention at […] each, and treated with the same volume of DMSO as a control group as the volume of each compound. After treatment with the compound of the present invention and the control group, cells were cultured in an incubator at 37° C. and 5% CO2 for 72 hours. Thereafter, since there were many living cells in each well, cell viability was quantified using a cell viability assay kit (LPS solution) of which the color becomes darker with an increase in the number of cells. After treatment with the cell viability assay solution, a reaction was performed in an incubator at 37° C. and 5% CO2 for 3 hours to perform coloration, absorbance at 450 nm was measured using a microplate reader (BioTek), and an absorbance intensity of the control group was set to 1 and the absorbance of cells treated with each compound was normalized and is shown in FIG. 2.
Background: Tetrazolium assays rely on reduction of a dye to a coloured formazan, in cell work by metabolically active cells.

For the next assay, the system named is SREBP. In words: Cell-based assay system using a 6xSRE reporter vector (copGFP intensity) in HOG-GSC-6xSRE-copGFP_HIGH cells. Further details: dose or concentration left out as unconfirmed. Particulars: copGFP intensity normalized to DMSO control = 1, 72 hours. From the text:
First, as shown in (a) of FIG. 1, SRE(5′-ATCACCCCAC-3′) 6 copies which are DNA seCuences to which a transcription factor, SREBP active form bonds were inserted into a minimal CMV promoter 5′ front end of a pGreenfire-Lenti-reporter vector to produce a 6xSRE reporter vector. The 6xSRE reporter vector is a vector system in which a minimal CMV promoter is activated only when SREBP in an activated form bonds to 6xSRE and copGFP is expressed, and after the vector was introduced to HOG-GSC which is a brain tumor stem cell, separation into a GFP high cell and a GFP low cell through FACS sorting was performed. Each of SREBP1a and SREBP1c in an active form was overexpressed in separated GFP-low cells (b of FIG. 1), and it was measured therefrom whether the expression amount of GFP was increased. As a result, it was confirmed that the overexpression of SREBP1a and SREBP1c active forms increased GFP expression by 43.30% and 93.49%, in separated GFP-low cells (c of FIG. 1). The separated GFP-high cells were treated with each of fatostatin and FGH10019 known to inhibit activity of DMSO and SREBP which was a control group to measure a change in the expression amount of GFP, and, as a result, it was confirmed that when treated with known materials, fatostatin and FGH10019, the expression of GFP was inhibited by up to 50% (d of FIG. 1).
HOG-GSC-6xSRE-copGFP_HIGH cells were dispensed into a 96-well plate (Corning) at 5000/well, each well was treated […], and then all wells were photographed every 3 hours for 72 hours in an incubator (ThermoFisher) at […], 5% CO2, using real-time cell imaging equipment (Incucyte) to photograph changes in copGFP intensity.

As for `CC(C)(C)c1cccc(-c2cc(/C=C3\SC(=O)NC3=O)ccn2)c1` [Compound 18, (Z)-5-((2-(3-(tert-butyl)phenyl)pyridin-4-yl)methylene)thiazolidine-2,4-dione], the “cell viability inhibition effect (normalized MTS value)” value with HOG-GSC cells is listed as “significant cell viability inhibition effect”. Moreover, the activity with SREBP turned out to be 1.3%.
The matching figures for `CC(C)(C)c1ccc(-n2cccc2/C=C2\SC(=O)NC2=O)cc1` [Compound 3, (Z)-5-((1-(4-(tert-butyl)phenyl)-1H-pyrrol-2-yl)methylene) thiazolidine-2,4-dione]: “significant cell viability inhibition effect” and 1%.
In the case of `CC(C)(C)c1ccc(-c2cncc(/C=C3\SC(=O)NC3=O)c2)cc1` [Compound 28, (Z)-5-((5-(4-(tert-butyl)phenyl)pyridin-3-yl)methylene)thiazolidine-2,4-dione], the “cell viability inhibition effect (normalized MTS value)” value in the assay with HOG-GSC cells is on record as “significant cell viability inhibition effect”. The compound also came in with an activity in the assay on SREBP of 4.8%.
The matching figures for `O=C1NC(=O)/C(=C/c2ccnc(-c3ccc(OCc4ccccc4)cc3)c2)S1` [Compound 15, (Z)-5-((2-(4-(benzyloxy)phenyl)pyridin-4-yl)methylene)thiazolidine-2,4-dione]: “significant cell viability inhibition effect” and 8.6%.
As to `O=C1NC(=O)/C(=C/c2ccnc(-c3ccc(C(F)(F)F)cc3)c2)S1` [Compound 12, (Z)-5-((2-(4-(trifluoromethyl)phenyl)pyridin-4-yl)methylene) thiazolidine-2,4-dione], the “cell viability inhibition effect (normalized MTS value)” value in the assay with HOG-GSC cells is on record as “significant cell viability inhibition effect”. This compound came in with an activity in the assay with SREBP of 5.9%.
The like results for `O=C1NC(=O)/C(=C/c2ccnc(-c3ccc(OC(F)(F)F)cc3)c2)S1` [Compound 14, (Z)-5-((2-(4-(trifluoromethoxy)phenyl)pyridin-4-yl)methylene) thiazolidine-2,4-dione] were, in that order, “significant cell viability inhibition effect” and 1.7%.
With `Cc1cc(C)cc(-c2cc(/C=C3\SC(=O)NC3=O)ccn2)c1` [Compound 19, (Z)-5-((2-(3,5-Dimethylphenyl)pyridin-4-yl)methylene)thiazolidine-2,4-dione], in the assay with HOG-GSC cells, the “cell viability inhibition effect (normalized MTS value)” value is listed as “significant cell viability inhibition effect”. The activity in the assay on SREBP stood at 1.8%.
The matching figures for `Cc1ccc(-c2cc(/C=C3\SC(=O)NC3=O)ccn2)cc1` [Compound 10, (Z)-5-((2-(p-tolyl)pyridin-4-yl)methylene)thiazolidine-2,4-dione]: “significant cell viability inhibition effect” and 8.8%.
The matching figures for `CC(C)(C)c1ccc(-c2ccnc(/C=C3\SC(=O)NC3=O)c2)cc1` [Compound 31, (Z)-5-((4-(4-(tert-butyl)phenyl)pyridin-2-yl)methylene)thiazolidine-2,4-dione]: “significant cell viability inhibition effect” and 4.5%.
The matching figures for `O=C1NC(=O)/C(=C/c2ccc(-c3ccc(OC(F)(F)F)cc3)nc2)S1` [Compound 25, (Z)-5-((6-(4-(trifluoromethoxy)phenyl)pyridin-3-yl)methylene) thiazolidine-2,4-dione]: “significant cell viability inhibition effect” and 6.3%.
